This note sets out measurements from the supplement of paper PMC11208160.
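Further: IS621 recombinase and bridge RNA in Escherichia coli cells.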

The data set can be described thus: recombinant barcode read abundance after kanamycin selection (control-corrected) (log10(CPM+1)); higher = more efficient recombination; sequences stand for … in AGTGCAGAGAAAATCGGCCAGTTTTCTCTGCCTGCAGTCCGCATGCCGT…AGATTTATGCAGCGGACTGCCTTTCTCCCAAAGTGATAAACCGGACAGTATCATGGACCGGTTTTCCCGGTAATCCGTATTTGCAAGGTTGGTTTCACT; site = the 11-nt target. Summed up: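 IS621 bridge RNA target-binding loops were paired with targets in a pooled library tested in E. coli. After co-electroporation with a donor plasmid, cells were plated in two replicates on chloramphenicol/ampicillin LB agar (control) and on chloramphenicol/ampicillin/kanamycin carrying 0.1 mM IPTG. Barcodes at recombinant junctions were counted as counts per million, averaged and control-corrected to give recombination efficiency. Values are log10(CPM+1).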
Regarding “GTGATCCCTTGGGTTCTAACCTGTTGCCT (site GAGATCCCTAG)”, the “recombinant barcode read abundance (log10)” value came out at 0.585.
To “GTGATCCCTTGGGTTCTAACCTGTTGCCT (site GTGATCCCTAG)” belongs 1.18; to “GTGCACCCTTGGGTTCTAACCTGTTGCTT (site GGGCATCCTAA)”, 0.115.
Then “GTGCACCCTTGGGTTCTAACCTGTTGCTT (site GTGCACCCTAA)”, with 1.57; and “GTGCCTGCTTGGGTTCTAACCTGTTGCCT (site GCGCATGCTAG)”, with 0.039.
Take “GTGCCTGCTTGGGTTCTAACCTGTTGCCT (site GTGCCTGCTAG)”: the “recombinant barcode read abundance (log10)” value worked out at 1.05.
On to “GTGCGCCCTTGGGTTCTAACCTGTTGCGG (site GTGCGCCCTAC)”, for which the “recombinant barcode read abundance (log10)” value was 0.369.
For “GTGCGCCCTTGGGTTCTAACCTGTTGCGG (site GTGCGCCCTCC)”, the “recombinant barcode read abundance (log10)” value worked out at 1.28.
Take “GTGCGCTCTTGGGTTCTAACCTGTTGCGC (site CCAGCTGCTAG)”: the “recombinant barcode read abundance (log10)” value amounted to 0.0659.
Then “GTGCGCTCTTGGGTTCTAACCTGTTGCGC (site GTGCGCTCTGC)”, with 0.145.
With “GTGGAAGCTTGGGTTCTAACCTGTTGCCT (site GAGGAAGCTAG)”, the “recombinant barcode read abundance (log10)” value is 0.316.
Then “GTGGAAGCTTGGGTTCTAACCTGTTGCCT (site GCGGAAGCTAG)”, with 0.367.
On to “GTGGAAGCTTGGGTTCTAACCTGTTGCCT (site GGGGAAGCTAG)”, for which the “recombinant barcode read abundance (log10)” value is 0.262.
As for “GTGGAAGCTTGGGTTCTAACCTGTTGCCT (site GTGGAAGCTAG)”, the “recombinant barcode read abundance (log10)” value is 1.1.
To “GTGGATGCTTGGGTTCTAACCTGTTGCCT (site GGGGATTCTAG)” belongs 0.28.
Then “GTGGATGCTTGGGTTCTAACCTGTTGCCT (site GTGGATGCTAG)”, with 1.6.
Then “GTGGGCCCTTGGGTTCTAACCTGTTGCCT (site GTATGCCCTAG)”, with 0.02; and “GTGGGCCCTTGGGTTCTAACCTGTTGCCT (site GTGGGCCCTAG)”, with 2.07.
Regarding “GTGGGCCCTTGGGTTCTAACCTGTTGCTG (site ATCGGCCCTCA)”, the “recombinant barcode read abundance (log10)” value was determined as 0.302.
Then “GTGGGCCCTTGGGTTCTAACCTGTTGCTG (site GTGGGCCCTCA)”, with 2.73; and “GTGGGCTCTTGGGTTCTAACCTGTTGCCT (site CTGGGCTCTTG)”, with 0.0529; and “GTGGGCTCTTGGGTTCTAACCTGTTGCCT (site GTGGGCTCTAG)”, with 2.01.
Turning to “GTGGTAGCTTGGGTTCTAACCTGTTGCCT (site GTGGTAACTAG)”, the “recombinant barcode read abundance (log10)” value was 0.857.
As to “GTGGTAGCTTGGGTTCTAACCTGTTGCCT (site GTGGTACCTAG)”, the “recombinant barcode read abundance (log10)” value turned out to be 0.209.
To “GTGGTAGCTTGGGTTCTAACCTGTTGCCT (site GTGGTAGCTAG)” belongs 1.42; to “GTGGTAGCTTGGGTTCTAACCTGTTGCCT (site GTGGTATCTAG)”, 0.0998.
Take “GTGGTGGCTTGGGTTCTAACCTGTTGCCT (site GTGGTGGCTAG)”: the “recombinant barcode read abundance (log10)” value came out at 0.764.
On to “GTGGTGGCTTGGGTTCTAACCTGTTGCCT (site GTTGGGGCTAG)”, for which the “recombinant barcode read abundance (log10)” value came to 0.151.
To “GTGTAGGCTTGGGTTCTAACCTGTTGCAG (site GTGTAGGCTCT)” belongs 2.66; to “GTGTAGGCTTGGGTTCTAACCTGTTGCAG (site GTGTAGTCTCG)”, 0.0205; to “GTGTATCCTTGGGTTCTAACCTGTTGCCA (site GTGAAGCCTTG)”, 0.186.
To “GTGTATCCTTGGGTTCTAACCTGTTGCCA (site GTGTATCCTTG)” belongs 0.196; to “GTGTATTCTTGGGTTCTAACCTGTTGCCT (site ACTGTCACTCC)”, 0.0809; to “GTGTATTCTTGGGTTCTAACCTGTTGCCT (site GTGTATTCTAG)”, 1.44.
“GTGTCTACTTGGGTTCTAACCTGTTGCCT (site GTGTCTACTAG)”: the “recombinant barcode read abundance (log10)” value amounted to 0.754.
Then “GTGTCTACTTGGGTTCTAACCTGTTGCCT (site TTGTATACTAG)”, with 0.0293; and “GTGTCTCCTTGGGTTCTAACCTGTTGCGA (site GAGTGTCCTTC)”, with 0.00692; and “GTGTCTCCTTGGGTTCTAACCTGTTGCGA (site GTGTCTCCTTC)”, with 0.996.
In the case of “GTGTGGACTTGGGTTCTAACCTGTTGCAG (site GTGAGGACTCA)”, the “recombinant barcode read abundance (log10)” value is 0.0484.
With “GTGTGGACTTGGGTTCTAACCTGTTGCAG (site GTGTGGACTCT)”, the “recombinant barcode read abundance (log10)” value was 2.18.
Then “GTGTGGCCTTGGGTTCTAACCTGTTGCCA (site GTGTGGCCTTG)”, with 0.574; and “GTGTGGCCTTGGGTTCTAACCTGTTGCCA (site TCCGATACTAC)”, with 0; and “GTGTGGCCTTGGGTTCTAACCTGTTGCTT (site GAGTGCCCTAA)”, with 0.107.
As to “GTGTGGCCTTGGGTTCTAACCTGTTGCTT (site GTGTGGCCTAA)”, the “recombinant barcode read abundance (log10)” value came to 0.294.
Turning to “GTGTGTACTTGGGTTCTAACCTGTTGCCT (site GTGTGTACTAG)”, the “recombinant barcode read abundance (log10)” value was 1.21.
To “GTGTGTACTTGGGTTCTAACCTGTTGCCT (site GTGTGTCCTAG)” belongs 0.101.
For the sequence “GTGTGTACTTGGGTTCTAACCTGTTGCCT (site GTGTGTGCTAG)”, the “recombinant barcode read abundance (log10)” value worked out at 0.24.
To “GTGTGTACTTGGGTTCTAACCTGTTGCCT (site GTGTGTTCTAG)” belongs 0.0215; to “GTGTGTGCTTGGGTTCTAACCTGTTGCCT (site GTGTGTACTAG)”, 0.821; to “GTGTGTGCTTGGGTTCTAACCTGTTGCCT (site GTGTGTCCTAG)”, 0.0466.
To “GTGTGTGCTTGGGTTCTAACCTGTTGCCT (site GTGTGTGCTAG)” belongs 1.44; to “GTGTGTGCTTGGGTTCTAACCTGTTGCCT (site GTGTGTTCTAG)”, 0.0513.
“GTGTGTTCTTGGGTTCTAACCTGTTGCCA (site GTGTGTTCTTG)”: the “recombinant barcode read abundance (log10)” value came to 0.336.
Consider “GTGTGTTCTTGGGTTCTAACCTGTTGCCA (site TTGTGTTCTTA)”, for which the “recombinant barcode read abundance (log10)” value came to 0.0943.
On to “GTTACAACTTGGGTTCTAACCTGTTGCCT (site CTTACGACTAG)”, for which the “recombinant barcode read abundance (log10)” value was found to be 0.0197.
Consider “GTTACAACTTGGGTTCTAACCTGTTGCCT (site GTTACAACTAG)”, for which the “recombinant barcode read abundance (log10)” value was found to be 0.263.
Consider “GTTACGGCTTGGGTTCTAACCTGTTGCCT (site GTTACGGCTAG)”, for which the “recombinant barcode read abundance (log10)” value amounted to 0.0907.
Then “GTTACGGCTTGGGTTCTAACCTGTTGCCT (site GTTCCGGCTAG)”, with 0.0623.
To “GTTACGGCTTGGGTTCTAACCTGTTGCCT (site GTTGCGGCTAG)” belongs 0.0497; to “GTTACGGCTTGGGTTCTAACCTGTTGCCT (site GTTTCGGCTAG)”, 0.
“GTTAGAGCTTGGGTTCTAACCTGTTGCCT (site GTTAGAGCTAG)”: the “recombinant barcode read abundance (log10)” value worked out at 1.32.
To “GTTAGAGCTTGGGTTCTAACCTGTTGCCT (site GTTCGAGCTAG)” belongs 0.235; to “GTTAGAGCTTGGGTTCTAACCTGTTGCCT (site GTTGGAGCTAG)”, 0.0737; to “GTTAGAGCTTGGGTTCTAACCTGTTGCCT (site GTTTGAGCTAG)”, 0.225.
To “GTTAGGCCTTGGGTTCTAACCTGTTGCCT (site GATAGGCCTAG)” belongs 0.0232; to “GTTAGGCCTTGGGTTCTAACCTGTTGCCT (site GTTAGGCCTAG)”, 0.292.
For the sequence “GTTCAACCTTGGGTTCTAACCTGTTGCCT (site GATCAACCTAG)”, the “recombinant barcode read abundance (log10)” value amounted to 0.242.
Take “GTTCAACCTTGGGTTCTAACCTGTTGCCT (site GCTCAACCTAG)”: the “recombinant barcode read abundance (log10)” value was 0.154.
To “GTTCAACCTTGGGTTCTAACCTGTTGCCT (site GGTCAACCTAG)” belongs 0.0287; to “GTTCAACCTTGGGTTCTAACCTGTTGCCT (site GTTCAACCTAG)”, 1.48; to “GTTCCTCCTTGGGTTCTAACCTGTTGCCT (site GTTCCTCCTAG)”, 0.823.
Then “GTTCCTCCTTGGGTTCTAACCTGTTGCCT (site GTTCCTGCTAG)”, with 0.0108.
To “GTTGAGTCTTGGGTTCTAACCTGTTGCGT (site CTTGAGCCTAC)” belongs 0.0835.
In the case of “GTTGAGTCTTGGGTTCTAACCTGTTGCGT (site GTTGAGTCTAC)”, the “recombinant barcode read abundance (log10)” value amounted to 1.87.
In the case of “GTTTATACTTGGGTTCTAACCTGTTGCCT (site GTATATACTAG)”, the “recombinant barcode read abundance (log10)” value was 0.0265.
Take “GTTTATACTTGGGTTCTAACCTGTTGCCT (site GTCTATACTAG)”: the “recombinant barcode read abundance (log10)” value was 0.091.
Regarding “GTTTATACTTGGGTTCTAACCTGTTGCCT (site GTGTATACTAG)”, the “recombinant barcode read abundance (log10)” value was 0.0593.
